Measurements reported in patent publication US4765972A (priority 1986, dated 1988).

Columns and labels:
[1] = test system: P388 murine leukemic cells; assay: Growth inhibition of exponentially growing P388 cells; type: cell-based; settings: Mus musculus, P388, 72 h
Description: Thus, NABV is ideal for probing intracellular Vinca alkaloid interactions because it retains the known biochemical and pharmacological properties of this class of drugs.

P388 leukemic cells = assay: Ultrastructural alterations in P388 cells; type: cell-based, murine
[2] = test system: MCF-7 human breast tumor cells; assay: Ultrastructural alterations in MCF-7 cells; type: cell-based
microtubule = assay: In vitro microtubule assembly; type: biochemical; settings: both drugs at similar concentrations
tubulin [3] = assay: Tubulin aggregation; type: biochemical; settings: both drugs at similar concentrations
tubulin [4] = assay: Tubulin-dependent GTP hydrolysis; type: biochemical; settings: both drugs at similar concentrations
[5] = test system: calf brain macromolecular components; assay: Control irradiation of calf brain homogenate with ^3 H-vinblastine; type: binding; settings: standard photolabelling conditions; 50 nM ^3 H-vinblastine
Method: The standard photolabelling mixture used contained 50 nM ^3 H-NABV (50.6 Ci/mmol), 4% dimethylsulfoxide, […] potassium phosphate buffer, pH 7.0, and 2 mg/ml of tissue homogenate or high speed pellet or supernatant fractions in a final volume of 0.05 ml in polyvinylchloride V-microtiter wells (Dynatech Labs, Inc., Alexandria, VA) in a 25° C. water bath. Photolabelling mixtures were incubated for 15 minutes at 25° C. before photolysis. Photoactivation was performed for 10-20 minutes with a UV light equipped with two 15 W self-filtering 302 nm lamps (Model xx-15, Ultra-Violet Products, Inc., San Gabriel, CA), placed 3.4 cm above the photolabelling mixture. […] In a control experiment, brain homogenate was irradiated in the presence of 50 nM ^3 H-vinblastine (10.7 Ci/mmol; Amersham Corp., Arlington Heights, IL). Photoactivated samples were immediately processed for SDS-PAGE or frozen at -70° C.
When homogenate was incubated with ^3 H-NABV in the absence of UV light for 30 minutes, no radioactivity was found in subsequent SDS-PAGE gel slices above the ambient background level, except for excess 3H-NABV which migrated near the tracking dye front. Similar results were obtained after photoactivating ^3 H-NABV in the absence of brain homogenate which was then added prior to performing SDS-PAGE and gel slice analysis.

| SMILES | IC50 [1] | ultrastructural alterations (microtubular paracrystals, mitotic arrest, multinucleated cells) (P388 leukemic cells) | ultrastructural alterations (microtubular paracrystals, mitotic arrest, multinucleated cells) [2] | effect on in vitro microtubule assembly (microtubule) | effect on tubulin aggregation (tubulin [3]) | effect on tubulin-dependent GTP hydrolysis (tubulin [4]) | radiolabel incorporation into calf brain macromolecular components [5] |
| --- | --- | --- | --- | --- | --- | --- | --- |
| CCC1(O)CC2CN(CCc3c([nH]c4ccccc34)C(C(=O)OC)(c3cc4c(cc3OC)N(C)C3C(O)(C(=O)NCCNC(=O)c5ccc(N=[N+]=[N-])cc5)C(O)C5(CC)C=CCN6CCC43C65)C2)C1 (stereo not drawn) [NABV, N-(p-azidobenzoyl)-N'-beta-aminoethylvindesine] | 1.1 nM | resembles those caused by vinblastine | resembles those caused by vinblastine | inhibit in vitro microtubule assembly | induce tubulin aggregation | inhibit tubulin-dependent GTP hydrolysis |  |
| CC[C@]1(O)C[C@@H]2CN(CCc3c([nH]c4ccccc34)[C@@](C(=O)OC)(c3cc4c(cc3OC)N(C)[C@H]3[C@@](O)(C(=O)OC)[C@H](OC(C)=O)[C@]5(CC)C=CCN6CC[C@]43[C@@H]65)C2)C1 [^3 H-vinblastine] |  |  |  |  |  |  | no radiolabel incorporation |
